According to patent US5132216A, “Microbial transformation process for antihypertensive products” (Merck & Co., Inc., priority 1991, dated 1992):

Biological target: T1, Angiotensin II (A II) receptor (Oryctolagus cuniculus, UniProt P34976)
T1 sequence (P34976 1-359): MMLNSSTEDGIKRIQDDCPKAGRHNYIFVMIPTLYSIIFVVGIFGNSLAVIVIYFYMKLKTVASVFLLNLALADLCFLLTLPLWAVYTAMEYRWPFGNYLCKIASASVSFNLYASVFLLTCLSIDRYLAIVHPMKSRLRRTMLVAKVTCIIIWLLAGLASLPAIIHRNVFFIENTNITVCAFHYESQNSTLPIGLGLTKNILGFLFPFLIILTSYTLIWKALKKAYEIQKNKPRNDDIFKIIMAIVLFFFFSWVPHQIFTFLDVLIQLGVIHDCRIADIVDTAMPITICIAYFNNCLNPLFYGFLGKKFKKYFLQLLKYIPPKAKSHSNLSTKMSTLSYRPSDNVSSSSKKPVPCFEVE
Experiment: Receptor binding assay using rabbit aortae membrane preparation (125I-Sar1Ile8-angiotensin II displacement, "IC50" assay)
Description: This assay is also referred to herein as the "IC50 " assay.
Receptor binding assay using rabbit aortae membrane preparation
Three frozen rabbit aortae (obtained from Pel-Freeze Biologicals) were suspended in 5 mM Tris-0.25M Sucrose, pH 7.4 buffer (50 ml) homogenized, and then centifuged. The mixture was filtered through a cheesecloth and the supernatant was centrifuged for 30 minutes at 20,000 rpm at 4° C. The pellet thus obtained was resuspended in 30 ml of 50 mM Tris-5 mM MgCl2 buffer containing 0.2% Bovine Serum Albumin and 0.2 mg/ml Bacitration and the suspension was used for 100 assay tubes. Samples tested for screening were done in duplicate. To the membrane preparation (0.25 ml) there was added ^125 I-Sar^1 Ile^8 -angiotensin II [obtained from New England Nuclear] (10 ul; 20,000 cpm) with or without the test sample and the mixture was incubated at 37° C. for 90 minutes. The mixture was then diluted with ice-cold 50 mM Tris-0.9% NaCl, pH 7.4 (4 ml) and filtered through a glass fiber filter (GF/B Whatman 2.4" diameter). The filter was soaked in scintillation cocktail (10 ml) and counted for radioactivity using Packard 2660 Tricarb liquid scintillation counter. […]

- A II antagonist activity by the IC50 assay: exhibit A II antagonist activity
SMILES: Cc1cc(CO)nc2c1nc(C(C)O)n2Cc1ccc(-c2ccccc2-c2nnn[nH]2)cc1 (stereo not shown) [compound (IV)]
